≈ marks a conversion by molar mass, not a printed value.
Assays:
S. aureus CJ232 = experiment: MIC, agar diffusion method, S. aureus CJ232 (MRSA); format: cell-based; settings: for MIC: Staphylococcus aureus, read-out: MIC value (concentration in μg/ml required for 90% inhibition)
Excerpt: (§1) In vitro investigations have evidenced high potency of compounds of the invention against several bacteria including Staphylococci, Streptococci, Corynebacteriae, Mycobacteriae and Neisseriae. […] The potency of new fusidic acid analogues are estimated by comparing the inhibition of growth of different microorganisms produced by known concentrations of the analogue to be examined and a reference like fusidic acid. The microbiological assay set up is in agreement with the European Pharmacopoeia 3rd edition (1997). It is an agar diffusion method where the same volume of the tested solution is added to cavities in agar. The inhibition zones are function of the concentration of the fusidic acid analogue used. All assays are run with fusidic acid as reference substance. [drawing 7]

S. epidermidis ATCC12228 = experiment: MIC, agar diffusion method, S. epidermidis ATCC12228; format: cell-based; settings: for MIC: Staphylococcus epidermidis, read-out: MIC value (concentration in μg/ml required for 90% inhibition)
Excerpt: as §1

[1] = tested on: Str. salvarius LEO-ID EG7; experiment: MIC, agar diffusion method, Str. salvarius LEO-ID EG7; format: cell-based; settings: for MIC: read-out: MIC value (concentration in μg/ml required for 90% inhibition)
Excerpt: as §1

Str.mitis Leo id: EG5 = experiment: MIC, agar diffusion method, Str.mitis Leo id: EG5; format: cell-based; settings: for MIC: Streptococcus mitis, read-out: MIC value (concentration in μg/ml required for 90% inhibition)
Excerpt: as §1

[2] = tested on: Str. faecium Leo-id: E119(P); experiment: MIC, agar diffusion method, Str. faecium Leo-id: E119(P) (penicillin resistant); format: cell-based; settings: for MIC: Enterococcus faecium, read-out: MIC value (concentration in μg/ml required for 90% inhibition)
Excerpt: as §1

S. aureus ATC6538P = experiment: MIC, agar diffusion method, S. aureus ATC6538P; format: cell-based; settings: for MIC: Staphylococcus aureus, read-out: MIC value (concentration in μg/ml required for 90% inhibition)
Excerpt: as §1

S. aureus ATCC 29213 = experiment: MIC, agar diffusion method, S. aureus ATCC 29213; format: cell-based; settings: for MIC: Staphylococcus aureus, ATCC29213, read-out: MIC value (concentration in μg/ml required for 90% inhibition)
Excerpt: as §1

Str. pyrogenes NCTC8304 = experiment: MIC, agar diffusion method, Str. pyrogenes NCTC8304; format: cell-based; settings: for MIC: read-out: MIC value (concentration in μg/ml required for 90% inhibition)
Excerpt: as §1

Str. sp. ATCC12449 = experiment: MIC, agar diffusion method, Str. sp. ATCC12449; format: cell-based; settings: for MIC: read-out: MIC value (concentration in μg/ml required for 90% inhibition)
Excerpt: as §1

[3] = tested on: Str. pyrogenes Leo id: EC5; experiment: MIC, agar diffusion method, Str. pyrogenes Leo id: EC5; format: cell-based; settings: for MIC: read-out: MIC value (concentration in μg/ml required for 90% inhibition)
Excerpt: as §1

Str. sp. Leo id: EF6 = experiment: MIC, agar diffusion method, Str. sp. Leo id: EF6; format: cell-based; settings: for MIC: read-out: MIC value (concentration in μg/ml required for 90% inhibition)
Excerpt: as §1

S. aureus CJ234 (R) = experiment: MIC, agar diffusion method, S. aureus CJ234 (R) (MRSA and Rifampicin resistant); format: cell-based; settings: for MIC: Staphylococcus aureus, read-out: MIC value (concentration in μg/ml required for 90% inhibition)
Excerpt: as §1

[4] = tested on: several bacteria including Staphylococci, Streptococci, Corynebacteriae, Mycobacteriae and Neisseriae; experiment: In vitro antibacterial activity, agar diffusion with fusidic acid as reference; format: cell-based; settings: biological tests, see Table 1
Excerpt: as §1

bacteria = settings: reduction of C-24/C-25 and C-17/C-20 double bonds of fusidic acid; von Daehne et al. 1979; cited from earlier work

Compound	MIC value (concentration in μg/ml required for 90% inhibition) (S. aureus CJ232) [µg/mL]	MIC value (concentration in μg/ml required for 90% inhibition) (S. epidermidis ATCC12228) [µg/mL]	MIC value (concentration in μg/ml required for 90% inhibition) [1] [µg/mL]	MIC value (concentration in μg/ml required for 90% inhibition) (Str.mitis Leo id: EG5) [µg/mL]	MIC value (concentration in μg/ml required for 90% inhibition) [2] [µg/mL]	MIC value (concentration in μg/ml required for 90% inhibition) (S. aureus ATC6538P) [µg/mL]	MIC value (concentration in μg/ml required for 90% inhibition) (S. aureus ATCC 29213) [µg/mL]	MIC value (concentration in μg/ml required for 90% inhibition) (Str. pyrogenes NCTC8304) [µg/mL]	MIC value (concentration in μg/ml required for 90% inhibition) (Str. sp. ATCC12449) [µg/mL]	MIC value (concentration in μg/ml required for 90% inhibition) [3] [µg/mL]	MIC value (concentration in μg/ml required for 90% inhibition) (Str. sp. Leo id: EF6) [µg/mL]	further results
CC(=O)OC1CC2(C)C(CC(O)C3C4(C)CCC(=O)C(C)C4CCC32C)C12CC2(CCC=C(C)C)C(=O)O (stereo not drawn) [Compound 104, 3-Dehydro-17S,20S-methanofusidic acid]	1.0	0.125	64	64	0.25	0.125	0.125	16	64	64	64	–
CC(=O)OC1CC2(C)C(CC(O)C3C4(C)CCC(O)C(C)C4CCC32C)C12CC2(CCCC(C)C)C(=O)O (stereo not drawn) [Compound 102, 24,25-Dihydro-17S,20S-methanofusidic acid]	0.25	0.125	16	64	1	0.125	0.25	16	64	64	64	MIC value (concentration in μg/ml required for 90% inhibition) (S. aureus CJ234 (R)): 0.25 µg/mL
CC(=O)O[C@H]1C[C@@]2(C)C(CC(O)[C@@H]3C2(C)CCC2C(C)C(O)CC[C@@]23C)C12CC2(CCC=C(C)C)C(=O)O (stereo partly drawn) [Compound 101, 17S,20S-Methanofusidic acid]	–	–	–	–	–	–	–	–	–	–	–	MIC (S. aureus CJ232): 0.125 µg/mL (≈ 0.236 µM); MIC (S. epidermidis ATCC12228): 0.125 µg/mL (≈ 0.236 µM); MIC [1]: 4 µg/mL (≈ 7.54 µM); MIC (Str.mitis Leo id: EG5): 4 µg/mL (≈ 7.54 µM); MIC [2]: 0.125 µg/mL (≈ 0.236 µM); MIC (S. aureus ATC6538P): 0.125 µg/mL (≈ 0.236 µM); MIC (S. aureus ATCC 29213): 0.125 µg/mL (≈ 0.236 µM); MIC (Str. pyrogenes NCTC8304): 4 µg/mL (≈ 7.54 µM); MIC (Str. sp. ATCC12449): 16 µg/mL (≈ 30.1 µM); melting point: 243 to 245 °C; antibacterial activity compared to that of fusidic acid (1) [4]: comparable antibacterial activity; MIC (S. aureus CJ234 (R)): 0.004 µg/mL (≈ 0.00754 µM); MIC [3]: 16 µg/mL (≈ 30.1 µM); MIC (Str. sp. Leo id: EF6): 4 µg/mL (≈ 7.54 µM)
CC(=O)O[C@H]1C[C@@]2(C)C(CC(O)[C@@H]3C2(C)CCC2C(C)C(O)CC[C@@]23C)/C1=C(\CCC=C(C)C)C(=O)O (stereo partly shown) [Fusidic acid (1), fusidic acid]	–	–	–	–	–	–	–	–	–	–	–	MIC (S. aureus CJ232): 0.125 µg/mL (≈ 0.242 µM); MIC (S. epidermidis ATCC12228): 0.125 µg/mL (≈ 0.242 µM); MIC [1]: 4 µg/mL (≈ 7.74 µM); MIC (Str.mitis Leo id: EG5): 4 µg/mL (≈ 7.74 µM); MIC [2]: 0.125 µg/mL (≈ 0.242 µM); MIC (S. aureus ATC6538P): 0.125 µg/mL (≈ 0.242 µM); MIC (S. aureus ATCC 29213): 0.125 µg/mL (≈ 0.242 µM); MIC (Str. pyrogenes NCTC8304): 4 µg/mL (≈ 7.74 µM); MIC (Str. sp. ATCC12449): 4 µg/mL (≈ 7.74 µM); MIC (S. aureus CJ234 (R)): 0.004 µg/mL (≈ 0.00774 µM); MIC [3]: 4 µg/mL (≈ 7.74 µM); MIC (Str. sp. Leo id: EF6): 4 µg/mL (≈ 7.74 µM)
CCOC1CC2(C)C(CC(O)C3C4(C)CCC(O)C(C)C4CCC32C)C12CC2(CCC=C(C)C)C(=O)O (stereo not drawn) [Compound 110, 16-Deacetoxy-16β-ethoxy-17S,20S-methanofusidic acid]	1.0	0.125	64	64	0.25	0.125	0.125	4	64	64	64	MIC value (concentration in μg/ml required for 90% inhibition) (S. aureus CJ234 (R)): 0.004 µg/mL
CC(C)=CCCC1(C(=O)O)CC12C(OC(=O)C(C)C)CC1(C)C2CC(O)C2C3(C)CCC(O)C(C)C3CCC21C (stereo not drawn) [Compound 107, 16-Deacetoxy-16β-(isopropionyloxy)-17S,20S-methanofusidic acid]	1.0	0.25	64	16	4	0.25	1.0	64	64	64	16	–
tetrahydrofusidic acid	–	–	–	–	–	–	–	–	–	–	–	antibacterial activity (bacteria): almost complete loss of activity

Reference: patent US6673783B2, “Fusidic acid derivatives” (Leo Pharmaceutical Products Ltd. A/S, priority 2001, dated 2004)
